Experimental data reported in patent US7189680B2, “5-halo-6-aryl[1,2,4]triazolo[1,5-a]pyrimidin-7-amines” (Bayer Cropscience AG, priority 2001, dated 2007).

Test: logP determination by HPLC (EEC directive 79/831 Annex V. A8)
Format: physicochemical
Conditions: HPLC gradient method, acetonitrile/0.1% aqueous phosphoric acid; Table 1
Procedure: *) The logP values were determined in accordance with EEC directive 79/831 Annex V. A8 by HPLC (gradient method, acetonitrile/0.1% aqueous phosphoric acid)

logP*	SMILES
3.3	Fc1cccc(F)c1-c1c(Cl)nc2ncnn2c1NOCc1cccc(C(F)(F)F)c1 [Example 108]
3.78	CON(CC(C)C)c1c(-c2c(F)cc(F)cc2F)c(Cl)nc2ncnn12 [Example 152]
3.53	CCC(C)N(N)c1c(-c2cc(C(F)(F)F)ccc2Cl)c(Cl)nc2ncnn12 (stereo not shown) [Example 148]
3.11	NN(CC1CC1(Cl)Cl)c1c(-c2c(F)cccc2Cl)c(Cl)nc2ncnn12 (stereo not shown) [Example 171]
2.72	CC(C)CN(N)c1c(-c2c(F)cccc2F)c(Cl)nc2ncnn12 [Example 170]
2.42	CC(C)ONc1c(-c2ccccc2F)c(Cl)nc2ncnn12 [Example 98]
3.04	CC(C)ONc1c(-c2c(F)c(F)c(F)c(F)c2F)c(Cl)nc2ncnn12 [Example 122]
3.21	Clc1cccc(Cl)c1-c1c(Cl)nc2ncnn2c1NNC1CCCC1 [Example 160]
2.19	CN(O)c1c(-c2c(F)cccc2F)c(Cl)nc2ncnn12 [Example 124]
3.85	CC(C)CN(N)c1c(-c2c(Cl)cc(C(F)(F)F)cc2Cl)c(Cl)nc2ncnn12 [Example 136]
2.22	C#CCN(N)c1c(-c2c(F)cc(F)cc2F)c(Cl)nc2ncnn12 [Example 142]
2.88	CC(C)CN(N)c1c(-c2c(F)cc(F)cc2F)c(Cl)nc2ncnn12.Cl [Example 153]
2.8	Fc1cccc(F)c1-c1c(Cl)nc2ncnn2c1NOCc1ccccc1 [Example 103]
3.72	CC=NN(CC1CC1(Cl)Cl)c1c(-c2c(F)cc(F)cc2F)c(Cl)nc2ncnn12 (stereo not shown) [Example 167]
3.34	Fc1ccccc1-c1c(Cl)nc2ncnn2c1NOCc1cccc(C(F)(F)F)c1 [Example 99]
2.85	CCCCONc1c(-c2ccccc2F)c(Cl)nc2ncnn12 [Example 100]
3.72	Fc1c(F)c(F)c(-c2c(Cl)nc3ncnn3c2NOCc2cccc(C(F)(F)F)c2)c(F)c1F [Example 118]
3.07	NN(CC1CCC1)c1c(-c2c(F)cccc2Cl)c(Cl)nc2ncnn12 [Example 173]
3.44	CCC(C)N(N)c1c(-c2cccc(C(F)(F)F)c2Cl)c(Cl)nc2ncnn12 (stereo not shown) [Example 144]
2.93	CCC(C)N(N)c1c(-c2c(F)cc(F)cc2F)c(Cl)nc2ncnn12 (stereo not shown) [Example 139]

logP*	SMILES
3.07	CC(=NNc1c(-c2c(F)cc(F)cc2F)c(Cl)nc2ncnn12)C(F)(F)F [Example 165]
2.58	CC(C)CN(N)c1c(-c2c(Cl)c(F)cc(C(F)(F)F)c2Cl)c(Cl)nc2ncnn12 [Example 126]
2.53	CONc1c(-c2c(F)c(F)c(F)c(F)c2F)c(Cl)nc2ncnn12 [Example 121]
3.08	CC(C)N(N)c1c(-c2ccc(C(F)(F)F)cc2F)c(Cl)nc2ncnn12 [Example 134]
3.58	Fc1c(F)c(F)c(-c2c(Cl)nc3ncnn3c2NOCc2ccccc2Cl)c(F)c1F [Example 116]
3.77	Fc1c(F)c(F)c(-c2c(Cl)nc3ncnn3c2NOCc2ccc(C(F)(F)F)cc2)c(F)c1F [Example 115]
2.94	CC(C)CN(N)c1c(-c2c(F)cccc2Cl)c(Cl)nc2ncnn12 [Example 138]
2.8	NN(CC1CC1)c1c(-c2c(Cl)cccc2Cl)c(Cl)nc2ncnn12 [Example 164]
3.66	NN(c1c(-c2c(F)cc(F)cc2F)c(Cl)nc2ncnn12)C1CCCCCC1 [Example 141]
3.3	Fc1ccccc1-c1c(Cl)nc2ncnn2c1NOCc1c(Cl)cccc1Cl [Example 101]
3.37	Fc1c(F)c(F)c(-c2c(Cl)nc3ncnn3c2NOCc2ccccc2)c(F)c1F [Example 112]
3.2	Fc1cccc(F)c1-c1c(Cl)nc2ncnn2c1NOCc1c(Cl)cccc1Cl [Example 110]
2.62	CC(C)N(N)c1c(-c2c(F)cc(F)cc2F)c(Cl)nc2ncnn12 [Example 133]
3.45	CC(C)CN(N)c1c(-c2cccc(C(F)(F)F)c2Cl)c(Cl)nc2ncnn12 [Example 163]
3.51	CC(C)CN(N)c1c(-c2cc(C(F)(F)F)ccc2Cl)c(Cl)nc2ncnn12 [Example 140]
1.1	NN(CCN1CCOCC1)c1c(-c2c(F)cc(F)cc2F)c(Cl)nc2ncnn12 [Example 129]
3.43	CC(C)CN(N)c1c(-c2ccc(C(F)(F)F)cc2F)c(Cl)nc2ncnn12 [Example 135]
3.57	CC(C)CN(N)c1c(-c2cc(C(F)(F)F)ccc2C(F)(F)F)c(Cl)nc2ncnn12 [Example 137]
3.65	Fc1c(F)c(F)c(-c2c(Cl)nc3ncnn3c2NOCc2c(Cl)cccc2Cl)c(F)c1F [Example 120]

Continued, compound first:

SMILES	logP*
Fc1cc(F)c(-c2c(Cl)nc3ncnn3c2NOCc2ccc(OC(F)(F)F)cc2)c(F)c1 [Example 11]	3.54
Fc1cc(F)c(-c2c(Cl)nc3ncnn3c2NNCC2CCCO2)c(F)c1 (stereo not shown) [Example 52]	2.44
Fc1ccc(CONc2c(-c3c(F)c(F)c(F)c(F)c3F)c(Cl)nc3ncnn23)cc1 [Example 72]	3.3
Fc1cc(F)c(-c2c(Cl)nc3ncnn3c2NNCCN2CCOCC2)c(F)c1 [Example 54]	1.14
CC(C)CONc1c(-c2c(F)cc(F)cc2F)c(Cl)nc2ncnn12 [Example 79]	3
Fc1cc(F)c(-c2c(Cl)nc3ncnn3c2NOCc2cccc(Cl)c2)c(F)c1 [Example 82]	3.27
CC(C)(C)ONc1c(-c2c(F)c(F)c(F)c(F)c2F)c(Cl)nc2ncnn12 [Example 75]	3.24
Fc1cc(F)c(-c2c(Cl)nc3ncnn3c2NNCC(F)(F)C(F)F)c(F)c1 [Example 29]	2.58
Fc1ccccc1-c1c(Cl)nc2ncnn2c1NOCc1ccccc1 [Example 95]	2.83
Fc1ccccc1-c1c(Cl)nc2ncnn2c1NOCc1ccccc1Cl [Example 59]	3.06
Fc1cc(F)c(-c2c(Cl)nc3ncnn3c2NOCc2cc(Cl)cc(Cl)c2)c(F)c1 [Example 80]	3.73
CC(C)ON(C)c1c(-c2c(F)cccc2F)c(Cl)nc2ncnn12 [Example 34]	3.01
Fc1cc(F)c(-c2c(Cl)nc3ncnn3c2NNC2CCCCC2)c(F)c1 [Example 35]	3.28
Fc1cc(F)c(-c2c(Cl)nc3ncnn3c2NNCC(F)(F)F)c(F)c1 [Example 19]	2.47
C=CCONc1c(-c2c(F)c(F)c(F)c(F)c2F)c(Cl)nc2ncnn12 [Example 74]	2.89
CC(C)CONc1c(-c2c(F)c(F)c(F)c(F)c2F)c(Cl)nc2ncnn12 [Example 69]	3.42
CCNNc1c(-c2ccccc2F)c(Cl)nc2ncnn12 [Example 89]	2.06
CONc1c(-c2c(F)cc(F)cc2F)c(Cl)nc2ncnn12 [Example 31]	2.12
Fc1ccccc1-c1c(Cl)nc2ncnn2c1NOC1CCCCO1 (stereo not shown) [Example 66]	2.46
CC(C)(C)ONc1c(-c2c(F)cc(F)cc2F)c(Cl)nc2ncnn12 [Example 43]	2.75

SMILES	logP*
C=CCONc1c(-c2ccccc2F)c(Cl)nc2ncnn12 [Example 64]	2.27
CCONc1c(-c2c(F)c(F)c(F)c(F)c2F)c(Cl)nc2ncnn12 [Example 70]	2.73
Fc1cc(F)c(-c2c(Cl)nc3ncnn3c2NOCc2cccc(C(F)(F)F)c2)c(F)c1 [Example 84]	3.39
Fc1ccccc1-c1c(Cl)nc2ncnn2c1NOCc1ccc(C(F)(F)F)cc1 [Example 58]	3.31
CCC(C)ONc1c(-c2ccccc2F)c(Cl)nc2ncnn12 (stereo not shown) [Example 63]	2.69
CON(C)c1c(-c2c(F)cccc2F)c(Cl)nc2ncnn12 [Example 28]	2.43
CC1(NNc2c(-c3c(F)cc(F)cc3F)c(Cl)nc3ncnn23)CCCCC1 [Example 27]	3.68
CCCCONc1c(-c2c(F)cc(F)cc2F)c(Cl)nc2ncnn12 [Example 85]	3.01
N#CCCNNc1c(-c2ccccc2F)c(Cl)nc2ncnn12 [Example 94]	1.82
CC(C)CCNNc1c(-c2c(F)cc(F)cc2F)c(Cl)nc2ncnn12 [Example 78]	3.25
CCC(C)ONc1c(-c2c(F)cccc2F)c(Cl)nc2ncnn12 (stereo not shown) [Example 48]	2.67
CC(C)(O)CNNc1c(-c2c(F)cc(F)cc2F)c(Cl)nc2ncnn12 [Example 53]	2.09
Cc1ccc(CONc2c(-c3c(F)cc(F)cc3F)c(Cl)nc3ncnn23)cc1 [Example 13]	3.25
CCONc1c(-c2c(F)cc(F)cc2F)c(Cl)nc2ncnn12 [Example 40]	2.33
CC(C)(C)ONc1c(-c2ccccc2F)c(Cl)nc2ncnn12 [Example 65]	2.58
Fc1cccc(F)c1-c1c(Cl)nc2ncnn2c1NOC1CCCCO1 (stereo not shown) [Example 51]	2.43
Fc1ccccc1-c1c(Cl)nc2ncnn2c1NOCc1cc(Cl)cc(Cl)c1 [Example 96]	3.69
Fc1cc(F)c(-c2c(Cl)nc3ncnn3c2NNC2CCCC2)c(F)c1 [Example 55]	2.98
CC(C)CONc1c(-c2ccccc2F)c(Cl)nc2ncnn12 [Example 56]	2.79

Same assay, conditions: HPLC gradient method, acetonitrile/0.1% aqueous phosphoric acid; Table 1; read-out: logP*

chromatographic logP	SMILES
3.67	NN(CC1CCCCC1)c1c(-c2c(F)cc(F)cc2F)c(Cl)nc2ncnn12 [Example 22]

Same assay, conditions: HPLC; preparation examples; read-out: HPLC: logP

SMILES	chromatographic logP
CC(C)(C)ONc1c(-c2c(F)cccc2F)c(Cl)nc2ncnn12 [Example 2, 7-(tert-butoxyamino)-5-chloro-6-(2,6-difluorophenyl)[1,2,4)triazolo[1,5-a]pyrimidine]	2.59
C[C@H](N(SC(F)(Cl)Cl)c1c(-c2c(F)cc(F)cc2F)c(Cl)nc2ncnn12)C(F)(F)F [Example 3, 5-chloro-7-{{[dichloro(fluoro)methyl]sulphanyl}[(1S)-2,2,2-trifluoro-1-methylethyl]amino}-6-(2,4,6-trifluorophenyl)[1,2,4]triazolo[1,5-a]pyrimidine]	4.74

Same assay, conditions: Table 2, carbamates of formula (VIII)

logP	SMILES
2.06	C=C(C)CN(OC)C(=O)OCC [Example 179]
